Measurements from patent US5420289A, “Substituted indole-, indene-, pyranoindole- and tetrahydrocarbazole-alkanoic acid derivatives as inhibitors of PLA2 and lipoxygenase” (American Home Products Corporation, priority 1993, dated 1995).

Columns and labels:
[1] = tested on: synthesis of LTB4 by rat glycogen-elicited polymorphonuclear leukocytes (PMN); experiment: inhibition of LTB4 synthesis by rat glycogen-elicited PMN (Example 72); assay type: cell-based, rat (female Wistar); conditions: Leukocyte, at 10 mM, negative number denotes potentiation
Outline: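 Peritoneal PMNs from female Wistar rats 18-24 h after i.p. glycogen, 2.0×10^7 cells/mL in HBSS with Ca/Mg and 10 mM L-cysteine; compound preincubated 10 min at 37° C, then A23187 […] added for 10 min. Supernatant [3H]-LTB4 quantified by radio-HPLC versus drug-free stimulated cells; percent inhibition or IC50.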

[2] = tested on: cyclooxygenase (PGE2 synthesis) in rat polymorphonuclear leukocytes (PMN); experiment: inhibition of PGE2 synthesis (cyclooxygenase) by rat glycogen-elicited PMN (Example 73); assay type: cell-based, rat (female Wistar); conditions: Leukocyte, at 10 mM, * (negative) denotes a potentiation, read-out: % Inhibition (PGE2 synthesis)
Outline: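 Glycogen-elicited peritoneal PMNs from female Wistar rats, 2.0×10^7 cells/mL in HBSS with Ca/Mg and 10 mM L-cysteine, preincubated with drug 10 min at 37° C. Stimulated 10 min with A23187 plus [3H]-AA and unlabeled AA (stocks 1 mM); supernatant [3H]-PGE2 measured by reverse-phase HPLC co-chromatographed with reference standard.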

[3] = tested on: lipoxygenase pathway (LTC4); experiment: in vivo murine zymosan peritonitis assay, LTC4 (Example 76); parameters: species or system mouse (male CD-1); conditions: 50 mg/kg p.o.; negative values denote potentiation
Description: (§1) The compounds of the invention are evaluated for their ability to inhibit the lipoxygenase and/or cyclooxygenase pathways of arachidonic acid metabolism in the in vivo murine zymosan peritonitis assay.
(§2) This assay is carried out as follows:
(§3) Male CD-1 mice (8 weeks old) are placed in plastic boxes in groups of six. Animals are injected with 1 mL i.p. of either 1% zymosan in pyrogen free 0.9% saline or saline (unstimulated control). Compounds are dosed orally 1 hour prior to zymosan injection. Twenty minutes after zymosan injection, the mice are asphyxiated by CO2 inhalation and tile peritoneal cavity is lavaged with 2 mL ice cold Hanks Balanced Salt Solution (HBSS) without CaCl2, MgSO4 ·7H2 O and MgCl2 ·6H2 O. Peritoneal lavage fluid from each mouse is removed by syringe and placed in 5 mL plastic test tubes put on ice and volume is noted. […]
(§4) The total metabolite level in lavage fluid/mouse is calculated and the significance is determined by a one-way analysis of variance with LSD comparisons to control (p<0.05). Drug effects are expressed as a percent change from control values.

[4] = tested on: cyclooxygenase pathway (6-keto-PGF1a); experiment: in vivo murine zymosan peritonitis assay, 6-keto-PGF1a (Example 76); parameters: species or system mouse (male CD-1); conditions: 50 mg/kg p.o.; negative values denote potentiation
Description: as §1, §2, §3, §4

carrageenan paw edema = experiment: rat carrageenan paw edema assay (Example 78); assay type: in vivo, rat (male Sprague-Dawley); conditions: 50 mg/kg peroral; 3 hours after carrageenan
Description: The compounds of the invention are further tested in the rat carrageenan paw edema assay to determine their ability to inhibit the acute inflammatory response.
This assay is carried out as follows: 140-180 g Male Sprague-Dawley rats, in groups of 6 animals are injected subcutaneously in the right paw with 0.1 mL of 1% carrageenan at zero time. Mercury plethysmographic readings (mL) of the paw are made at zero time and 3 hours later. Test compounds are suspended or dissolved in 0.5% methylcellulose and given perorally 1 hour prior to carrageenan administration.
The increase in paw volume (edema in mL) produced by the carrageenan is measured. Paw edema is calculated (3 hour volume minus zero time volume), and percent inhibition of edema is determined. Unpaired Student's t-test is used to determine statistical significance.

Structure (SMILES)	inhibition at 10000 µM [1] [%]	inhibition at 10000 µM [2] [%]	% Inhibition LTC4 [3] [%]	% Inhibition 6-keto-PGF [4] [%]	% Inhibition 50 mg/kg (peroral) (carrageenan paw edema)
CC1(CC(=O)O)OCCc2c1[nH]c1ccc(OCc3ccc4ccccc4n3)cc21 (stereo not shown) [Example 10, 1-Methyl-1,3,4,9-tetrahydro-6-(2-quinolinylmethoxy)pyrano[3.4-b]indole-1-acetic acid]	91	-41	11	-5	48%
CCC1(CC(=O)O)CCCc2c1[nH]c1ccc(OCc3ccc4ccccc4n3)cc21 (stereo not shown) [Example 11, 1-Ethyl-2,3,4,9-tetrahydro-6-(2-quinolinylmethoxy)-1H-carbazole-1-acetic acid]	95	80	-49	47	+1%
